According to PMC10924921, “Mi-2β promotes immune evasion in melanoma by activating EZH2 methylation” (Nature Communications, 2024):

Legend:
Assay in all cases: biochemical
Parameters in all cases: KINOMEscan active-site competition binding panel (468 kinase assays), per cent of control at 1000 nM
Settings in all cases: KINOMEscan per cent of control (binding competition); read-out: Percent Control
MAK = MAK (Homo sapiens, UniProt P20794)
Description: (§1) Figure S7 / Percent Control

GSK3B = GSK3B (Homo sapiens, UniProt P49841)
Description: as §1

FGFR4 = FGFR4 (Homo sapiens, UniProt P22455)
Description: as §1

RIPK2 = RIPK2 (Homo sapiens, UniProt O43353)
Description: as §1

KIT(D816V) = KIT(D816V) (Homo sapiens, UniProt P10721, D816V)
Description: as §1

LYN = LYN (Homo sapiens, UniProt P07948)
Description: as §1

HPK1 = biological target: T1, HPK1 (Homo sapiens, UniProt Q92918)
T1 construct: gene MAP4K1
Description: as §1

PIK3CB = PIK3CB (Homo sapiens, UniProt P42338)
Description: as §1

MAST1 = MAST1 (Homo sapiens, UniProt Q9Y2H9)
Description: as §1

CDC2L1 = biological target: T2, CDC2L1 (Homo sapiens, UniProt P21127)
T2 construct: gene CDK11B
Description: as §1

ZAK = biological target: T3, ZAK (Homo sapiens, UniProt Q9NYL2)
T3 construct: gene MAP3K20
Description: as §1

KIT(A829P) = KIT(A829P) (Homo sapiens, UniProt P10721, A829P)
Description: as §1

ABL1-phosphorylated = biological target: T4, ABL1-phosphorylated (Homo sapiens, UniProt P00519)
T4 construct: phosphorylated
Description: as §1

MST2 = biological target: T5, MST2 (Homo sapiens, UniProt Q13188)
T5 construct: gene STK3
Description: as §1

PCTK2 = biological target: T6, PCTK2 (Homo sapiens, UniProt Q00537)
T6 construct: gene CDK17
Description: as §1

MLK3 = biological target: T7, MLK3 (Homo sapiens, UniProt Q16584)
T7 construct: gene MAP3K11
Description: as §1

INSRR = INSRR (Homo sapiens, UniProt P14616)
Description: as §1

[1] = biological target: T8, RSK2(Kin.Dom.2-C-terminal) (Homo sapiens, UniProt P51812)
T8 construct: gene RPS6KA3; Kin.Dom.2-C-terminal
Description: as §1

EPHA4 = EPHA4 (Homo sapiens, UniProt P54764)
Description: as §1

ABL2 = ABL2 (Homo sapiens, UniProt P42684)
Description: as §1

ULK1 = ULK1 (Homo sapiens, UniProt O75385)
Description: as §1

TXK = TXK (Homo sapiens, UniProt P42681)
Description: as §1

MKNK1 = MKNK1 (Homo sapiens, UniProt Q9BUB5)
Description: as §1

RIPK4 = RIPK4 (Homo sapiens, UniProt P57078)
Description: as §1

MERTK = MERTK (Homo sapiens, UniProt Q12866)
Description: as §1

Sequence of LYN (P07948 whole entry): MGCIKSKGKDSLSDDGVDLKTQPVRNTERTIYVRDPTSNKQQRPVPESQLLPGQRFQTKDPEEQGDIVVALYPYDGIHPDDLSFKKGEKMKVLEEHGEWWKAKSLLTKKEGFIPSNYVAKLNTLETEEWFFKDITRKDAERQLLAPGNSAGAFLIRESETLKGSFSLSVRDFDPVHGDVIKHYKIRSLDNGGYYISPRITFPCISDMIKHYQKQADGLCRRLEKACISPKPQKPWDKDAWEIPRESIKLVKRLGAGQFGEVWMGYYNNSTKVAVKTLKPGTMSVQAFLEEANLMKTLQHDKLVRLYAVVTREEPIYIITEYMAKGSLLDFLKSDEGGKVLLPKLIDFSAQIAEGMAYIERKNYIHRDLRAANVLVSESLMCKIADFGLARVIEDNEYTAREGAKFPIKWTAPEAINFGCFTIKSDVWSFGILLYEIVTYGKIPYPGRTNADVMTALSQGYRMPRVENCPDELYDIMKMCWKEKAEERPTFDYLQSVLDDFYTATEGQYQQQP
Sequence of MAK (P20794 whole entry): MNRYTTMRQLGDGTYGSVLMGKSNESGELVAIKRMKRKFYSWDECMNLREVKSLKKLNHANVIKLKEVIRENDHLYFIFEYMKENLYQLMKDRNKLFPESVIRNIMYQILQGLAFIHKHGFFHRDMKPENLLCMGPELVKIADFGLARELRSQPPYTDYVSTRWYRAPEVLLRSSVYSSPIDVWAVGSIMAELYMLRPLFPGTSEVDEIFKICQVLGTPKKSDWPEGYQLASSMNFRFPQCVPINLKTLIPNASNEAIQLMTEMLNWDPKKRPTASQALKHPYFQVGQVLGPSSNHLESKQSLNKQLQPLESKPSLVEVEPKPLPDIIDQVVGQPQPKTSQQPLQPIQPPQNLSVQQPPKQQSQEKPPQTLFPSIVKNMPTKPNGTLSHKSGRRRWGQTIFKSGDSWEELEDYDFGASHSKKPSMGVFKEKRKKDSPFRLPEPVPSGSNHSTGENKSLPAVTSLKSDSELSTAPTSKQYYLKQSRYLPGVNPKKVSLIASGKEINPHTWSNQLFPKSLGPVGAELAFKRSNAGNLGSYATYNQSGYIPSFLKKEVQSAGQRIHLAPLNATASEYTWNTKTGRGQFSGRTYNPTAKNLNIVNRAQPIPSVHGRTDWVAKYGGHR
T5 sequence (Q13188 whole entry): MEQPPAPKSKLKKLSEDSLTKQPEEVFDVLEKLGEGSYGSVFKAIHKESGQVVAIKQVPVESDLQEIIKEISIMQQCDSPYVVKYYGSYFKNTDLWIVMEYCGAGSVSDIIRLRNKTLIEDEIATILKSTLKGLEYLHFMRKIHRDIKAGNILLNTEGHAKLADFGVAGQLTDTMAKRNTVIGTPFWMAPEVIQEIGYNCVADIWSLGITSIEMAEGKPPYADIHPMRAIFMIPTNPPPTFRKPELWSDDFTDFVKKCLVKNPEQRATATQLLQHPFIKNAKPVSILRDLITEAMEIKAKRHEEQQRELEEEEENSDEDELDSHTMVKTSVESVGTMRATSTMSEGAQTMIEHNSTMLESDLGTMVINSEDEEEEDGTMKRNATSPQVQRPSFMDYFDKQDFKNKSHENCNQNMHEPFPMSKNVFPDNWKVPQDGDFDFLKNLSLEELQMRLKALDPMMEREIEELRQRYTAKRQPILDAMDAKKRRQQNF
Sequence of MAST1 (Q9Y2H9 whole entry): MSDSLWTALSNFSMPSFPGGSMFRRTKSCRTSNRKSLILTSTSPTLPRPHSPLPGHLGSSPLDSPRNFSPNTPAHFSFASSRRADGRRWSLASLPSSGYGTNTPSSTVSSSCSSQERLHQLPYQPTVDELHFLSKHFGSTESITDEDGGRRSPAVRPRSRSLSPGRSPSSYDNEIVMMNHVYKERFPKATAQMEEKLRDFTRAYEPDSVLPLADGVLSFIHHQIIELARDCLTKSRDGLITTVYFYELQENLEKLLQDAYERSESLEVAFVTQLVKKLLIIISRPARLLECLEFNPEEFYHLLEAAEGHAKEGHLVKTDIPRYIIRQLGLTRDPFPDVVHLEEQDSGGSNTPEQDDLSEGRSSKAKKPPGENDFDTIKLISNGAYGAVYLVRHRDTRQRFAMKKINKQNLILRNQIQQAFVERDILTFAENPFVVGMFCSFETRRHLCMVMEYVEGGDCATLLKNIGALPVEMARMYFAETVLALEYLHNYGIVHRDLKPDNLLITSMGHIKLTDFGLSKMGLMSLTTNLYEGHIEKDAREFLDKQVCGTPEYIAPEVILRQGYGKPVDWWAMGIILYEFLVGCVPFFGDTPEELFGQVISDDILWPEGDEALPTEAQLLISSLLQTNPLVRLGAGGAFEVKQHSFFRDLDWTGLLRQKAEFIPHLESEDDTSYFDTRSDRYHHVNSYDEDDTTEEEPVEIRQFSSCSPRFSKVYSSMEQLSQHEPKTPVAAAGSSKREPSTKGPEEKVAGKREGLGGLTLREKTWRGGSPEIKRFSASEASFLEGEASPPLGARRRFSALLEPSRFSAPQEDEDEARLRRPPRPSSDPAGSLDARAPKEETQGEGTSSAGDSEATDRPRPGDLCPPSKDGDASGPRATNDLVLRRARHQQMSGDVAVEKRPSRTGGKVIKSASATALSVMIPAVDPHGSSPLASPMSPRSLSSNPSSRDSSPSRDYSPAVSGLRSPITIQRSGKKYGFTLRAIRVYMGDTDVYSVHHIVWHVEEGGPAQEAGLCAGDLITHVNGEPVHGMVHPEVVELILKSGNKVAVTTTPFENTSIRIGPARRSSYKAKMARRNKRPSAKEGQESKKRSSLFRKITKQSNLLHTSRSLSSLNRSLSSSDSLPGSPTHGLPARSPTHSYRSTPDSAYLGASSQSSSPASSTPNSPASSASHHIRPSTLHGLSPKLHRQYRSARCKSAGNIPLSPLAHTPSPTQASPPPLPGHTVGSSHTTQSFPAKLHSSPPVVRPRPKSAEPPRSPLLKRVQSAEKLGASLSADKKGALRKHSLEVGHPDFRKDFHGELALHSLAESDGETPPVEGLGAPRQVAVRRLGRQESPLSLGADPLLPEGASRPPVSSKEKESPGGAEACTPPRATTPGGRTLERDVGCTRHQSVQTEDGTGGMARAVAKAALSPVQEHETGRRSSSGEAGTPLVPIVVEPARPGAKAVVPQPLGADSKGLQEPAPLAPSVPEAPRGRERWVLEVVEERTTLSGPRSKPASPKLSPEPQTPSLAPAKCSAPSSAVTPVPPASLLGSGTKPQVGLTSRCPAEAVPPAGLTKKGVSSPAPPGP
Sequence of MERTK (Q12866 whole entry): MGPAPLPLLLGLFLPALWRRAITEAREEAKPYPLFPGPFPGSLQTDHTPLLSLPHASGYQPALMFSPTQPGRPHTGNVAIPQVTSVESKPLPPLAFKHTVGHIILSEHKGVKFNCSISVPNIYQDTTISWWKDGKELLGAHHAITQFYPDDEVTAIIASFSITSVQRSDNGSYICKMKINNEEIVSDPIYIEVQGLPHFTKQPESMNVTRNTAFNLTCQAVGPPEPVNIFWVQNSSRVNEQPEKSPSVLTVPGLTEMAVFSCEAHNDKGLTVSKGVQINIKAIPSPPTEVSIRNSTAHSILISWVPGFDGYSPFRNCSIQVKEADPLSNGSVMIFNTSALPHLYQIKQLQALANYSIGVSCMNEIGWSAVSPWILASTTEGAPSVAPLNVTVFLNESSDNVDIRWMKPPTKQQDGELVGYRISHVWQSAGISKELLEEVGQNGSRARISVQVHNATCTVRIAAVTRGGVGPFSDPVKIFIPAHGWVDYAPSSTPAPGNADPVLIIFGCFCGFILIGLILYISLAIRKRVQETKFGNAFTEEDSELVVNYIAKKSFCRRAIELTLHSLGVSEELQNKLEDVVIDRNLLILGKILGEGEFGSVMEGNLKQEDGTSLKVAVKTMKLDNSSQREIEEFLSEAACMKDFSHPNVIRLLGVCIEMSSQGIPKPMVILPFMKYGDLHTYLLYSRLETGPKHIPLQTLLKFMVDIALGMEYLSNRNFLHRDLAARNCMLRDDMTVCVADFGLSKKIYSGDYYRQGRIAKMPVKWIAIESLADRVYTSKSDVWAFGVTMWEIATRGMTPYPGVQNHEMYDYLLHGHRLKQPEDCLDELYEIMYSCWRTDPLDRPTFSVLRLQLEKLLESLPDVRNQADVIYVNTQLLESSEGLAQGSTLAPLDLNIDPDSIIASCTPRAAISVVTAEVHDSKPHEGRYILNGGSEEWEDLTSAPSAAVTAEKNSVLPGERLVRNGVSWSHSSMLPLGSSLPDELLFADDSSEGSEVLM
T2 sequence (P21127 whole entry): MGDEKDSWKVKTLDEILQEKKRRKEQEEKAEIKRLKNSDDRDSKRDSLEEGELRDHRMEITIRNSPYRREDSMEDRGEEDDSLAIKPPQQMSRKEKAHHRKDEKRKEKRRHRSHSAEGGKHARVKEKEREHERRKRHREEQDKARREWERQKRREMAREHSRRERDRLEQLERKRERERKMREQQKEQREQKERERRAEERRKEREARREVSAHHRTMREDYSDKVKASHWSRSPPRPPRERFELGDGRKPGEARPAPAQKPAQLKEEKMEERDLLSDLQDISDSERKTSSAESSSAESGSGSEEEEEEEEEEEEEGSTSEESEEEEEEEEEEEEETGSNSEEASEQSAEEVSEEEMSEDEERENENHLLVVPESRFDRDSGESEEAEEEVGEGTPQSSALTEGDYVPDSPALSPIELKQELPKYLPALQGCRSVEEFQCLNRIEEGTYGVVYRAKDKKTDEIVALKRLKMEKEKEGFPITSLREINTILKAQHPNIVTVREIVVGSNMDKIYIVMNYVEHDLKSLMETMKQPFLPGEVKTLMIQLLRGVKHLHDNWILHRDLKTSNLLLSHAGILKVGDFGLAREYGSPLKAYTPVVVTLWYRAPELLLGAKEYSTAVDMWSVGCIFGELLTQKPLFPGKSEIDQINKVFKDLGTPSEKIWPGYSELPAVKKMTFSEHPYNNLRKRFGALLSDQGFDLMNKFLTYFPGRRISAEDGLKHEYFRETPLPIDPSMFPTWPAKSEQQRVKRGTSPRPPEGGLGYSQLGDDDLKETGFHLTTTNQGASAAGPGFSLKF

Compound `Cn1c(=O)[nH]c2ccc(-c3cccc(C(=O)NC4CCn5ccnc5C4)c3)cc21` (stereo not shown) [Z36-MP5] has a remaining binding at 1 µM (MAK) of 88%, a remaining binding at 1 µM (GSK3B) of 81% and a remaining binding at 1 µM (FGFR4) of 76%. For the same compound, the remaining binding at 1 µM (RIPK2) was 94%, the remaining binding at 1 µM (KIT(D816V)) was 58% and the remaining binding at 1 µM (LYN) was 77%. The remaining binding at 1 µM (HPK1) was 83%, the remaining binding at 1 µM (PIK3CB) was 71% and the remaining binding at 1 µM (MAST1) was 72%. For the same compound, the remaining binding at 1 µM (CDC2L1) was 88%, the remaining binding at 1 µM (ZAK) was 95% and the remaining binding at 1 µM (KIT(A829P)) was 78%. It also gave a remaining binding at 1 µM (ABL1-phosphorylated) of 51%, a remaining binding at 1 µM (MST2) of 93% and a remaining binding at 1 µM (PCTK2) of 94%. It also gave a remaining binding at 1 µM (MLK3) of 93%, a remaining binding at 1 µM (INSRR) of 86% and a remaining binding at 1 µM [1] of 63%. The remaining binding at 1 µM (EPHA4) was 58%, the remaining binding at 1 µM (ABL2) was 98% and the remaining binding at 1 µM (ULK1) was 51%. The remaining binding at 1 µM (TXK) was 98%, the remaining binding at 1 µM (MKNK1) was 100% and the remaining binding at 1 µM (RIPK4) was 99%. It also gave a remaining binding at 1 µM (MERTK) of 70%.
